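Compound exposure: 48 hours, 5 concentrations, 96-well plates. The concentration for 50% growth inhibition is given as GI50. TGI: concentration producing complete growth inhibition.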
Columns and labels:
Experiment in all cases: NCI anticancer screen, dose series, 48 h
HOP-62 NSCLC = test system: HOP-62 NSCLC
SW-620 colon = test system: SW-620 colon
OVCAR-8 ovarian = test system: OVCAR-8 ovarian
NCI-H23 lung = test system: NCI-H23 lung
MOLT-4 leukemia = test system: MOLT-4 leukemia
SNB-19 CNS = test system: SNB-19 CNS
SK-MEL-5 melanoma = test system: SK-MEL-5 melanoma
NCI/ADR-RES ovarian = test system: NCI/ADR-RES ovarian
SN12C renal = test system: SN12C renal
NCI-H460 lung = test system: NCI-H460 lung
SF-268 CNS = test system: SF-268 CNS
MCF7 breast = test system: MCF7 breast
UO-31 renal = test system: UO-31 renal
MDA-MB-435 = test system: MDA-MB-435
SK-MEL-28 melanoma = test system: SK-MEL-28 melanoma
SK-OV-3 ovarian = test system: SK-OV-3 ovarian
NCI-H522 lung = test system: NCI-H522 lung
EKVX NSCLC = test system: EKVX NSCLC
UACC-62 melanoma = test system: UACC-62 melanoma
OVCAR-5 ovarian = test system: OVCAR-5 ovarian
IGROV1 ovarian = test system: IGROV1 ovarian
HS 578T breast = test system: HS 578T breast
LOX IMVI melanoma = test system: LOX IMVI melanoma
CCRF-CEM leukemia = test system: CCRF-CEM leukemia
U251 CNS = test system: U251 CNS
SK-MEL-2 melanoma = test system: SK-MEL-2 melanoma
OVCAR-4 ovarian = test system: OVCAR-4 ovarian
KM12 colon = test system: KM12 colon
UACC-257 melanoma = test system: UACC-257 melanoma
ACHN renal = test system: ACHN renal
HCT-15 colon = test system: HCT-15 colon
SR leukemia = test system: SR leukemia
COLO 205 colon = test system: COLO 205 colon
M14 melanoma = test system: M14 melanoma
A549 NSCLC = test system: A549 NSCLC
786-0 renal = test system: 786-0 renal
SF-295 CNS = test system: SF-295 CNS
HCT-116 colon = test system: HCT-116 colon
MDA-MB-231 breast = test system: MDA-MB-231 breast
OVCAR-3 ovarian = test system: OVCAR-3 ovarian
TK-10 renal = test system: TK-10 renal
PC-3 prostate = test system: PC-3 prostate
HOP-92 NSCLC = test system: HOP-92 NSCLC
T-47D breast = test system: T-47D breast
NCI-H226 lung = test system: NCI-H226 lung
MALME-3M melanoma = test system: MALME-3M melanoma
DU-145 prostate = test system: DU-145 prostate
HCC-2998 colon = test system: HCC-2998 colon
RPMI-8226 leukemia = test system: RPMI-8226 leukemia
K-562 leukemia = test system: K-562 leukemia
HT29 colon = test system: HT29 colon
CAKI-1 renal = test system: CAKI-1 renal

Question: For O=C(Cn1c(=O)c(-c2ccccc2)nc2ccccc21)c1cccnc1, which GI50 (HOP-62 NSCLC) is on record?
Answer: Its GI50 is over 100 µM.

Question: What about the TGI (HOP-62 NSCLC) of the same molecule?
Answer: Its TGI is over 100 µM.

Question: And the GI50 (SW-620 colon)?
Answer: Its GI50 is over 100 µM.

Question: What about the TGI (SW-620 colon) of the same molecule?
Answer: The TGI was over 100 µM.

Question: What about the GI50 (OVCAR-8 ovarian) of the same molecule?
Answer: Its GI50 is over 100 µM.

Question: And the TGI (OVCAR-8 ovarian)?
Answer: The TGI was over 100 µM.

Question: What about the GI50 (NCI-H23 lung) of the same molecule?
Answer: Its GI50 is over 100 µM.

Question: And the TGI (NCI-H23 lung)?
Answer: The TGI was over 100 µM.

Question: And the GI50 (MOLT-4 leukemia)?
Answer: Its GI50 is over 100 µM.

Question: What about the TGI (MOLT-4 leukemia) of the same molecule?
Answer: The TGI was over 100 µM.

Question: What about the GI50 (SNB-19 CNS) of the same molecule?
Answer: Its GI50 is over 100 µM.

Question: What about the TGI (SNB-19 CNS) of the same molecule?
Answer: Its TGI is over 100 µM.

Question: What about the GI50 (SK-MEL-5 melanoma) of the same molecule?
Answer: Its GI50 is over 100 µM.

Question: What about the TGI (SK-MEL-5 melanoma) of the same molecule?
Answer: Its TGI is over 100 µM.

Question: What about the GI50 (NCI/ADR-RES ovarian) of the same molecule?
Answer: Its GI50 is over 100 µM.

Question: What about the TGI (NCI/ADR-RES ovarian) of the same molecule?
Answer: Its TGI is over 100 µM.

Question: And the GI50 (SN12C renal)?
Answer: The GI50 was over 100 µM.

Question: What about the TGI (SN12C renal) of the same molecule?
Answer: Its TGI is over 100 µM.

Question: And the GI50 (NCI-H460 lung)?
Answer: The GI50 was over 100 µM.

Question: What about the TGI (NCI-H460 lung) of the same molecule?
Answer: The TGI was over 100 µM.

Question: And the GI50 (SF-268 CNS)?
Answer: The GI50 was over 100 µM.

Question: What about the TGI (SF-268 CNS) of the same molecule?
Answer: The TGI was over 100 µM.

Question: What about the GI50 (MCF7 breast) of the same molecule?
Answer: The GI50 was over 100 µM.

Question: And the TGI (MCF7 breast)?
Answer: Its TGI is over 100 µM.

Question: What about the GI50 (UO-31 renal) of the same molecule?
Answer: Its GI50 is over 100 µM.

Question: What about the TGI (UO-31 renal) of the same molecule?
Answer: The TGI was over 100 µM.

Question: And the GI50 (MDA-MB-435)?
Answer: The GI50 was over 100 µM.

Question: What about the TGI (MDA-MB-435) of the same molecule?
Answer: Its TGI is over 100 µM.

Question: What about the GI50 (SK-MEL-28 melanoma) of the same molecule?
Answer: Its GI50 is over 100 µM.

Question: And the TGI (SK-MEL-28 melanoma)?
Answer: Its TGI is over 100 µM.

Question: And the GI50 (SK-OV-3 ovarian)?
Answer: The GI50 was over 100 µM.

Question: And the TGI (SK-OV-3 ovarian)?
Answer: The TGI was over 100 µM.

Question: And the GI50 (NCI-H522 lung)?
Answer: Its GI50 is over 100 µM.

Question: What about the TGI (NCI-H522 lung) of the same molecule?
Answer: Its TGI is over 100 µM.

Question: What about the GI50 (EKVX NSCLC) of the same molecule?
Answer: The GI50 was over 100 µM.

Question: What about the TGI (EKVX NSCLC) of the same molecule?
Answer: The TGI was over 100 µM.

Question: What about the GI50 (UACC-62 melanoma) of the same molecule?
Answer: Its GI50 is over 100 µM.

Question: What about the TGI (UACC-62 melanoma) of the same molecule?
Answer: Its TGI is over 100 µM.

Question: What about the GI50 (OVCAR-5 ovarian) of the same molecule?
Answer: The GI50 was over 100 µM.

Question: What about the TGI (OVCAR-5 ovarian) of the same molecule?
Answer: Its TGI is over 100 µM.

Question: And the GI50 (IGROV1 ovarian)?
Answer: Its GI50 is over 100 µM.

Question: And the TGI (IGROV1 ovarian)?
Answer: The TGI was over 100 µM.

Question: What about the GI50 (HS 578T breast) of the same molecule?
Answer: Its GI50 is over 100 µM.

Question: What about the TGI (HS 578T breast) of the same molecule?
Answer: Its TGI is over 100 µM.

Question: What about the GI50 (LOX IMVI melanoma) of the same molecule?
Answer: Its GI50 is over 100 µM.

Question: What about the TGI (LOX IMVI melanoma) of the same molecule?
Answer: Its TGI is over 100 µM.

Question: And the GI50 (CCRF-CEM leukemia)?
Answer: The GI50 was over 100 µM.

Question: And the TGI (CCRF-CEM leukemia)?
Answer: The TGI was over 100 µM.

Question: What about the GI50 (U251 CNS) of the same molecule?
Answer: The GI50 was over 100 µM.

Question: And the TGI (U251 CNS)?
Answer: Its TGI is over 100 µM.

Question: What about the GI50 (SK-MEL-2 melanoma) of the same molecule?
Answer: Its GI50 is over 100 µM.

Question: What about the TGI (SK-MEL-2 melanoma) of the same molecule?
Answer: The TGI was over 100 µM.

Question: And the GI50 (OVCAR-4 ovarian)?
Answer: The GI50 was 46.2 µM.

Question: What about the TGI (OVCAR-4 ovarian) of the same molecule?
Answer: The TGI was over 100 µM.

Question: And the GI50 (KM12 colon)?
Answer: Its GI50 is over 100 µM.

Question: And the TGI (KM12 colon)?
Answer: Its TGI is over 100 µM.

Question: What about the GI50 (UACC-257 melanoma) of the same molecule?
Answer: Its GI50 is over 100 µM.

Question: And the TGI (UACC-257 melanoma)?
Answer: Its TGI is over 100 µM.

Question: And the GI50 (ACHN renal)?
Answer: The GI50 was over 100 µM.

Question: What about the TGI (ACHN renal) of the same molecule?
Answer: Its TGI is over 100 µM.

Question: What about the GI50 (HCT-15 colon) of the same molecule?
Answer: The GI50 was over 100 µM.

Question: And the TGI (HCT-15 colon)?
Answer: Its TGI is over 100 µM.

Question: What about the GI50 (SR leukemia) of the same molecule?
Answer: Its GI50 is over 100 µM.

Question: What about the TGI (SR leukemia) of the same molecule?
Answer: The TGI was over 100 µM.

Question: And the GI50 (COLO 205 colon)?
Answer: The GI50 was over 100 µM.

Question: What about the TGI (COLO 205 colon) of the same molecule?
Answer: The TGI was over 100 µM.

Question: And the GI50 (M14 melanoma)?
Answer: Its GI50 is over 100 µM.

Question: And the TGI (M14 melanoma)?
Answer: The TGI was over 100 µM.

Question: What about the GI50 (A549 NSCLC) of the same molecule?
Answer: Its GI50 is over 100 µM.

Question: What about the TGI (A549 NSCLC) of the same molecule?
Answer: The TGI was over 100 µM.

Question: And the GI50 (786-0 renal)?
Answer: Its GI50 is over 100 µM.

Question: And the TGI (786-0 renal)?
Answer: Its TGI is over 100 µM.

Question: And the GI50 (SF-295 CNS)?
Answer: Its GI50 is over 100 µM.

Question: What about the TGI (SF-295 CNS) of the same molecule?
Answer: Its TGI is over 100 µM.

Question: And the GI50 (HCT-116 colon)?
Answer: Its GI50 is over 100 µM.

Question: What about the TGI (HCT-116 colon) of the same molecule?
Answer: The TGI was over 100 µM.

Question: What about the GI50 (MDA-MB-231 breast) of the same molecule?
Answer: Its GI50 is over 100 µM.

Question: What about the TGI (MDA-MB-231 breast) of the same molecule?
Answer: The TGI was over 100 µM.

Question: And the GI50 (OVCAR-3 ovarian)?
Answer: The GI50 was over 100 µM.

Question: And the TGI (OVCAR-3 ovarian)?
Answer: The TGI was over 100 µM.

Question: What about the GI50 (TK-10 renal) of the same molecule?
Answer: Its GI50 is over 100 µM.

Question: And the TGI (TK-10 renal)?
Answer: The TGI was over 100 µM.

Question: What about the GI50 (PC-3 prostate) of the same molecule?
Answer: The GI50 was over 100 µM.

Question: And the TGI (PC-3 prostate)?
Answer: The TGI was over 100 µM.

Question: And the GI50 (HOP-92 NSCLC)?
Answer: The GI50 was 27.7 µM.

Question: And the TGI (HOP-92 NSCLC)?
Answer: Its TGI is over 100 µM.

Question: What about the GI50 (T-47D breast) of the same molecule?
Answer: The GI50 was over 100 µM.

Question: And the TGI (T-47D breast)?
Answer: Its TGI is over 100 µM.

Question: What about the GI50 (NCI-H226 lung) of the same molecule?
Answer: Its GI50 is over 100 µM.

Question: And the TGI (NCI-H226 lung)?
Answer: Its TGI is over 100 µM.

Question: And the GI50 (MALME-3M melanoma)?
Answer: The GI50 was over 100 µM.

Question: What about the TGI (MALME-3M melanoma) of the same molecule?
Answer: Its TGI is over 100 µM.

Question: What about the GI50 (DU-145 prostate) of the same molecule?
Answer: The GI50 was over 100 µM.

Question: What about the TGI (DU-145 prostate) of the same molecule?
Answer: Its TGI is over 100 µM.

Question: What about the GI50 (HCC-2998 colon) of the same molecule?
Answer: The GI50 was over 100 µM.

Question: What about the TGI (HCC-2998 colon) of the same molecule?
Answer: The TGI was over 100 µM.

Question: What about the GI50 (RPMI-8226 leukemia) of the same molecule?
Answer: Its GI50 is over 100 µM.

Question: What about the TGI (RPMI-8226 leukemia) of the same molecule?
Answer: The TGI was over 100 µM.

Question: And the GI50 (K-562 leukemia)?
Answer: Its GI50 is over 100 µM.

Question: And the TGI (K-562 leukemia)?
Answer: The TGI was over 100 µM.

Question: What about the GI50 (HT29 colon) of the same molecule?
Answer: Its GI50 is over 100 µM.

Question: What about the TGI (HT29 colon) of the same molecule?
Answer: Its TGI is over 100 µM.

Question: What about the GI50 (CAKI-1 renal) of the same molecule?
Answer: Its GI50 is over 100 µM.

Question: And the TGI (CAKI-1 renal)?
Answer: Its TGI is over 100 µM.
